How the values were obtained:
[1] = target: T1, Gastrin/cholecystokinin type B receptor (Homo sapiens, UniProt P32239)
T1 sequence (P32239 whole entry): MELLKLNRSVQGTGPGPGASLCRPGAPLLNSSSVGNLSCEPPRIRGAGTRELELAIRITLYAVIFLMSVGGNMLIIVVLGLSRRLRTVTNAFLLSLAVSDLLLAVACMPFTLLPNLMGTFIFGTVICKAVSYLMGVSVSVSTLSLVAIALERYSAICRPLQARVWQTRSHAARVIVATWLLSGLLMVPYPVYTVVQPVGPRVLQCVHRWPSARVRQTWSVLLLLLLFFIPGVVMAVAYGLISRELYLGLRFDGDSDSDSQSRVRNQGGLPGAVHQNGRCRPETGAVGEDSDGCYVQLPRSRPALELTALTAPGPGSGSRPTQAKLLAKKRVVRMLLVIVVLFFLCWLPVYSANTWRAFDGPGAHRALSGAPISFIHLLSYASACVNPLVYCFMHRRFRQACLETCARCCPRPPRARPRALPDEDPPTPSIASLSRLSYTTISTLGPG

[2] = target: T2, Alpha-1A adrenergic receptor (Homo sapiens, UniProt P35348)
T2 sequence (P35348 whole entry): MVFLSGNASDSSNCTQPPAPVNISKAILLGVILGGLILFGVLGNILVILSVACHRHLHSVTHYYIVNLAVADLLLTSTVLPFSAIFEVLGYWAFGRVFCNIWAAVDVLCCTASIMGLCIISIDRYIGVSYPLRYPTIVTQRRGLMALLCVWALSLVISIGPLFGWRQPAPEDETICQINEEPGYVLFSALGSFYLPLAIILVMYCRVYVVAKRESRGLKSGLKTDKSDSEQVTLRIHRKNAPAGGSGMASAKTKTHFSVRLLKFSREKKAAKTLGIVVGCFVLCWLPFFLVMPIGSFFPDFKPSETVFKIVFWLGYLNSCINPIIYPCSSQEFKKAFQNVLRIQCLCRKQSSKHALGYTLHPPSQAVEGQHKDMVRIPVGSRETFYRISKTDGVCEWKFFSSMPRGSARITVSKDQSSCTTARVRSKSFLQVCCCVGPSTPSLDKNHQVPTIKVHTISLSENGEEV

Mu-type opioid receptor = Mu-type opioid receptor (Homo sapiens, UniProt P35372)
Chain of Mu-type opioid receptor (P35372 whole entry): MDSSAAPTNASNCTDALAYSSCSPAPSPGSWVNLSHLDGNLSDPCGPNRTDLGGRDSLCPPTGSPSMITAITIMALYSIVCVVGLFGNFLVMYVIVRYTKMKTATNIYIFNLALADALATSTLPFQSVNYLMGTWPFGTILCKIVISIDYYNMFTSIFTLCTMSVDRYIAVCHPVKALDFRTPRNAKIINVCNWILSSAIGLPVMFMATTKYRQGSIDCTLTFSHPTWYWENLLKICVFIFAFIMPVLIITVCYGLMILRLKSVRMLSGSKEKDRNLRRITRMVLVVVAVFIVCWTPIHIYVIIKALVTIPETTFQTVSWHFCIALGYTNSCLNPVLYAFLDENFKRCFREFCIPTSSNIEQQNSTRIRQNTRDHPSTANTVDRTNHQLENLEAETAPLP

Cannabinoid receptor 1 = Cannabinoid receptor 1 (Homo sapiens, UniProt P21554)
Chain of Cannabinoid receptor 1 (P21554 whole entry): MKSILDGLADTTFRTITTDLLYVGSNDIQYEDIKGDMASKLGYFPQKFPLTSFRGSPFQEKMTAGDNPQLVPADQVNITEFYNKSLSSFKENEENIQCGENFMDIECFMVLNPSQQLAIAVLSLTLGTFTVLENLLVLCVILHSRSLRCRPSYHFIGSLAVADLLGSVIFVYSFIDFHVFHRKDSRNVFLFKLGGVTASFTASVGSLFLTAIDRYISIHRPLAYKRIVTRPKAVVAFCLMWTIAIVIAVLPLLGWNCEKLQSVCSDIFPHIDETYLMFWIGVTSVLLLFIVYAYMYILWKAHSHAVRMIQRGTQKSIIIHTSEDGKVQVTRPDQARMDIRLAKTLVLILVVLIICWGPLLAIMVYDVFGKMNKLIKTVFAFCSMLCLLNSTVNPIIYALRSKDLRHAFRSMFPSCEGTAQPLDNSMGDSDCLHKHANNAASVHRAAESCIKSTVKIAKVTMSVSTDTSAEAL

[3] = target: T3, Cholecystokinin receptor type A (Homo sapiens, UniProt P32238)
T3 sequence (P32238 whole entry): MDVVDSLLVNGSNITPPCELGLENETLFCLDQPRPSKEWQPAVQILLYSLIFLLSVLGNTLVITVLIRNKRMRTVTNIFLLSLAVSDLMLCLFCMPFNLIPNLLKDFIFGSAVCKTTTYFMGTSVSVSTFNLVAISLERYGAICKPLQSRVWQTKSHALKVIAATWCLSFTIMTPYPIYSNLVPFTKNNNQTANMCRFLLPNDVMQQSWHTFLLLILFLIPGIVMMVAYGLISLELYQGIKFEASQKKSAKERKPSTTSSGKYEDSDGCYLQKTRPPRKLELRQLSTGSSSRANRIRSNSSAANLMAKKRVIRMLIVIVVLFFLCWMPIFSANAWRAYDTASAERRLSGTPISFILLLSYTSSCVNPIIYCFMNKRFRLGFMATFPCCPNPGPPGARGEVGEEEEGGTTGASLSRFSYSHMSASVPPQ

[4] = target: Beta-2 adrenergic receptor (Homo sapiens, UniProt P07550); type: functional, cell-based
Chain of Beta-2 adrenergic receptor (P07550 whole entry): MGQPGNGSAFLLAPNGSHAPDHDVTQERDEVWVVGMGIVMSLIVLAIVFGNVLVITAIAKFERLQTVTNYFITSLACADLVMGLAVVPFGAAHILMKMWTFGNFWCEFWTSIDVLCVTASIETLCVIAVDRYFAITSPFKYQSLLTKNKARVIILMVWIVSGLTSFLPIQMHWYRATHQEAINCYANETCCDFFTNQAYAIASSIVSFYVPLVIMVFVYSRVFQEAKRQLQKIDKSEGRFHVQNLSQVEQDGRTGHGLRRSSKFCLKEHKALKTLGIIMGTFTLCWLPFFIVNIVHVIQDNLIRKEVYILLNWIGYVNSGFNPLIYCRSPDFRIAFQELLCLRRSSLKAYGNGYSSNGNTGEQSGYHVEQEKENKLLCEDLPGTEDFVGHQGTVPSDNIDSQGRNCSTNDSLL

[5] = target: T4, Alpha-2C adrenergic receptor (Homo sapiens, UniProt P18825); type: functional
T4 sequence (P18825 whole entry): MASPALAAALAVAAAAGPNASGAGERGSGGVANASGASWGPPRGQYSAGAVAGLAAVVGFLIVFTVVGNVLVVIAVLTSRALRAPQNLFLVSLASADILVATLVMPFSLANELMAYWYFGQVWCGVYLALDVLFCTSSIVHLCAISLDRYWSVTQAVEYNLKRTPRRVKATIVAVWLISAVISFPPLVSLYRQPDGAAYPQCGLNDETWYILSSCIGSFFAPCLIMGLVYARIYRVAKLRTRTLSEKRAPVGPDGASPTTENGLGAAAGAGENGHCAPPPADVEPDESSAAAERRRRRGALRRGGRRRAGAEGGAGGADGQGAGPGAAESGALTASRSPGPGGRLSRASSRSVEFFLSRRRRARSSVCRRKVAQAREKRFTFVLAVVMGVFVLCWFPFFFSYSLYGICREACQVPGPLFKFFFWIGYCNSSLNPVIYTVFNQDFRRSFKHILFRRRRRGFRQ

Melanocortin receptor 4 = Melanocortin receptor 4 (Homo sapiens, UniProt P32245)
Chain of Melanocortin receptor 4 (P32245 whole entry): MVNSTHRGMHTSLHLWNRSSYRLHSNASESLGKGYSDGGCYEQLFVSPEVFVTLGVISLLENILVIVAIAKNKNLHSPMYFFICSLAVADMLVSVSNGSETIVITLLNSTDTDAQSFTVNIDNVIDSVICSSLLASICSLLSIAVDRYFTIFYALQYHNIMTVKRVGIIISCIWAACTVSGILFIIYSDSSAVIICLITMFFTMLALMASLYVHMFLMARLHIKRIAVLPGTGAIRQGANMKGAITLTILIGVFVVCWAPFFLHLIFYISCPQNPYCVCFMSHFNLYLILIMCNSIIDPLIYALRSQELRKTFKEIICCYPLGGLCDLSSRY

[6] = target: T5, 5-hydroxytryptamine receptor 2C (Homo sapiens, UniProt P28335)
T5 sequence (P28335 whole entry): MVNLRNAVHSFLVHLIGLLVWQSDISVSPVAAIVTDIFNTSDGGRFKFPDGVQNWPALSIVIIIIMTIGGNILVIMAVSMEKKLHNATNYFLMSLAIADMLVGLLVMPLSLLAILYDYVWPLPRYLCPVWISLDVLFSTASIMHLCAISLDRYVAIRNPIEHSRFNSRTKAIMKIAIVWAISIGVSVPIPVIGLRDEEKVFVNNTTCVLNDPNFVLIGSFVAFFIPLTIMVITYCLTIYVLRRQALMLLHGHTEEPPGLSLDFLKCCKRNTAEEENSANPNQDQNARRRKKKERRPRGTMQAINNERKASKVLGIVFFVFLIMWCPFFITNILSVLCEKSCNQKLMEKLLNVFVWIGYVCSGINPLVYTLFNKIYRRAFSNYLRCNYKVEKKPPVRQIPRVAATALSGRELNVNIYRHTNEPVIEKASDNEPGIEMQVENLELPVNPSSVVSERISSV
Note: assay procedure not described here.

Row | SMILES | AC50 [1] [µM] | AC50 [2] [µM] | AC50 (Mu-type opioid receptor) [µM] | AC50 (Cannabinoid receptor 1) [µM] | AC50 [3] [µM] | AC50 [4] [µM] | AC50 [5] [µM] | AC50 (Melanocortin receptor 4) [µM] | AC50 [6] [µM]
1 | CN1CC(=O)N2[C@H](c3ccc4c(c3)OCO4)c3[nH]c4ccccc4c3C[C@@H]2C1=O | > 30 | > 10 | > 30 | > 10 | > 30 | > 30 | > 10 | > 30 | > 30
2 | CN1CCc2cccc3c2[C@H]1Cc1ccc(O)c(O)c1-3 [APOMORPHINE] | 23.4 | > 10 | > 30 | > 10 | > 30 | > 30 | 3.2 | > 30 | 7.3
3 | CC(C)c1c(C(=O)Nc2ccccc2)c(-c2ccccc2)c(-c2ccc(F)cc2)n1CC[C@@H](O)C[C@@H](O)CC(=O)O [ATORVASTATIN] | > 30 | > 10 |  | > 10 | > 30 | > 30 | > 10 | > 30 | > 30
4 | NC(CO)C(=O)NNCc1ccc(O)c(O)c1O (centres undefined) [BENSERAZIDE] | > 30 | > 10 | > 10 | > 10 | > 30 | > 30 | > 10 | > 30 | > 30
5 | CN(C)C(=O)OC1N=C(c2ccccc2)c2cc(Cl)ccc2N(C)C1=O (centres undefined) [CAMAZEPAM] | > 30 | > 10 | > 10 | > 10 | > 30 | > 30 | > 10 | > 30 | > 30
6 | [H]/N=C(/N)c1ccc(NCc2nc3cc(C(=O)N(CCC(=O)O)c4ccccn4)ccc3n2C)cc1 [DABIGATRAN] | > 30 |  | > 30 |  | > 30 | > 30 | > 30 |  | > 30
7 | CN[C@@H](C)[C@H](O)c1ccccc1 [EPHEDRINE] | > 30 | > 10 | > 30 | > 10 | > 30 | > 30 | > 10 | > 30 | > 30
8 | CCN1CCC[C@H]1CNC(=O)c1cc(S(N)(=O)=O)ccc1OC [LEVOSULPIRIDE] | > 30 | 16 | > 30 | > 10 | > 30 | > 30 |  | > 30 | > 30
9 | CC/C=C\C/C=C\C/C=C\CCCCCCCC(=O)O [LINOLENIC ACID] | > 30 |  | > 30 |  | > 30 | > 30 | > 30 |  | > 30
10 | C#C[C@]1(O)CC[C@H]2[C@@H]3CCC4=CCCC[C@@H]4[C@H]3CC[C@@]21C [LYNESTRENOL] | > 30 |  |  |  | > 30 | > 30 | > 30 |  | > 30
11 | Cc1cccc(C)c1NC(=O)C1CCCCN1C (centres undefined) [MEPIVACAINE] | > 30 |  |  |  | > 30 | > 30 | > 30 |  | > 30
12 | C[C@H]1C[C@@H]2[C@H]([C@@H](O)C[C@@]3(C)[C@H]2CC[C@]3(O)C(=O)COC(=O)CCC(=O)O)[C@@]2(C)C=CC(=O)C=C12 [METHYLPREDNISOLONE HEMISUCCINATE] | > 30 |  |  |  | > 30 | > 30 | > 30 |  | > 30
13 | C[C@]12CCC(=O)C=C1CC[C@@H]1[C@@H]2CC[C@@]2(C)[C@H]1CC[C@]2(C)O [METHYLTESTOSTERONE] | > 30 |  |  |  | > 30 | > 30 | > 30 |  | > 30
14 | Cc1cc(-c2ccccc2)nnc1NCCN1CCOCC1 [MINAPRINE] | > 30 | > 10 | > 30 | 9.5 | > 30 | > 30 | > 10 | > 30 | > 30
15 | CCCCC(C)(O)C/C=C/[C@H]1[C@H](O)CC(=O)[C@@H]1CCCCCCC(=O)OC (some centres undefined) [MISOPROSTOL] | > 30 |  |  |  | > 30 | > 30 | > 30 |  | > 10
16 | NC(=O)C[S+]([O-])C(c1ccccc1)c1ccccc1 (centres undefined) [MODAFINIL] | > 30 | > 10 | > 10 | > 10 | > 30 | > 30 | > 10 | 24.1 | > 30
17 | COc1c(C)c2c(c(O)c1C/C=C(\C)CCC(=O)OCCN1CCOCC1)C(=O)OC2 [MYCOPHENOLATE MOFETIL] | > 30 |  |  |  | > 30 | > 30 | > 30 |  | > 30
18 | CCCCCCC(C)(C)c1cc(O)c2c(c1)OC(C)(C)C1CCC(=O)CC21 (centres undefined) [NABILONE] | > 30 |  |  |  | > 30 | > 30 | > 30 |  | > 30
19 | CC(Cc1ccccc1)NCCC(c1ccccc1)c1ccccc1 (centres undefined) [PRENYLAMINE] | > 30 | 0.877 | 1.8 | 7.95 | > 30 | > 30 | 2.3 | 6.4 | > 30
20 | CCN(CC)CCOC(=O)c1ccc(N)cc1 [PROCAINE] | > 30 | > 10 | > 30 | > 10 | > 30 | > 30 | > 10 | > 30 | > 30
21 | CCCOc1ccc(C(=O)OCCN(CC)CC)cc1N [PROPARACAINE] | > 30 |  |  |  | > 30 | > 30 | > 30 |  | > 30
22 | Nc1nc2ccc(OC(F)(F)F)cc2s1 [RILUZOLE] | > 30 |  |  |  | > 30 | > 30 | > 30 |  | > 30
23 | Cc1c(Cl)cccc1Nc1ccccc1C(=O)O [TOLFENAMIC ACID] | > 10 |  |  |  | > 30 | > 30 | > 30 |  | > 30
24 | COc1ccc(C(=O)N2CCN(c3ccc4c(c3)CCC(=O)N4)CC2)cc1OC [VESNARINONE] | > 30 |  |  |  | > 30 | > 30 | > 30 |  | > 30

Reference: ChEMBL document CHEMBL5291721, “A preclinical secondary pharmacology resource illuminates target-adverse drug reaction associations of marketed drugs” (Nat Commun, 2023)
